Test results published in ChEMBL document CHEMBL1926684, “Constituents of Trigonostemon heterophyllus” (J Nat Prod, 2011).

Experiments:
[1] = test system: HL-60; test: Cytotoxicity against human HL60 cells by MTT assay; assay type: functional, cell-based
[2] = test system: A549; test: Cytotoxicity against human A549 cells by SRB assay; assay type: functional, cell-based

Row | Structure (SMILES) | IC50 [1] [µM] | IC50 [2] [µM]
1 | CC(C)=CC(=O)C(O)/C(C)=C/CC[C@](C)(O)C1CCC(C)=CC1=O (some centres not stated) | > 10 | > 10
2 | C=C(C)[C@@]1(OC(C)=O)[C@H](OC(C)=O)[C@@H]2[C@H](OC(C)=O)[C@@]3(C)O[C@@]4([C@@H]3OC(C)=O)[C@@H](OC(=O)c3ccccc3)[C@](C)(OC(C)=O)C[C@H]4[C@@]2(O)[C@H](C)[C@@H]1OC(=O)c1ccccc1 (relative stereo) | > 10 | > 10
3 | C=C(C)[C@@]12OC3(c4ccccc4)O[C@@H]1[C@@H]1[C@H](OC(C)=O)[C@@](C)(O)[C@@H](OC(=O)c4ccccc4)[C@@]4(O)[C@@H](C[C@H](C)[C@@H]4OC(C)=O)[C@@]1(O3)[C@H](C)[C@@H]2OC(C)=O (relative stereo) | > 10 | > 10
4 | C=C(C)[C@@]12OC3(C)O[C@@H]1[C@@H]1[C@H](O)[C@@](C)(O)[C@@H](O)[C@@]4(O)[C@@H](C[C@H](C)[C@@H]4OC(C)=O)[C@@]1(O3)[C@H](C)[C@@H]2OC(=O)CCc1ccccc1 (relative stereo) | > 10 | > 10
5 | C=C(C)[C@@]12OC3(c4ccccc4)O[C@@H]1[C@@H]1[C@H]4O[C@@]4(C)[C@@H](O)[C@]4(O)C(=O)[C@@H](C)C[C@H]4[C@@]1(O3)[C@H](C)[C@@H]2OC(=O)c1ccccc1 (relative stereo) | 1.8 | 10
6 | C=C(C)[C@@]1(OC(C)=O)[C@H](OC(C)=O)[C@@H]2[C@H](OC(C)=O)[C@@]3(C)O[C@@]4([C@@H]3OC(C)=O)[C@@H](OC(=O)c3ccccc3)[C@@H](C)C[C@H]4[C@@]2(O)[C@H](C)[C@@H]1OC(=O)c1ccccc1 [TRIGOHETERIN B] | > 10 | > 10
